# From US20240239854A1, “ANTIMICROBIAL PEPTIDES AND MODIFICATIONS THEREOF” (Donald Danforth Plant Science Center, priority 2022, published 2024)
# Where two headings read alike, the source gives them in different places. Non-standard residues stand in square brackets, D forms with d. Residues, ends and D or L forms follow the SMILES beside them. No end group written: not given here. Dab = NCC[C@H](N)C(=O)O
# Tests used:
# B. cinerea [1] = details: for Antifungal activity relative to the wild-type GMA4C_AC control: in vitro, low cationic conditions
# Aspergillus fumigatus = test: MIC, CLSI M27/M38, half-strength potato dextrose broth (Example 2); format: cell-based
# F. graminearum = details: in vitro, low cationic conditions; F. graminearum
# C. parapsilosis = test: MIC, CLSI M27/M38, half-strength potato dextrose broth (Example 2); format: cell-based, Candida parapsilosis; details: Table 8; C. parapsilosis ATCC 22019
# Description: (§1) MICs were determined at 24-72 hours.
# F. solani = test: as above; format: cell-based; details: Table 8; Fusarium F4 (F. solani)
# Description: as §1
# F. oxysporum [2] = test: as above; format: cell-based; details: Table 8
# Description: as §1
# Coccidioides sp. = format: cell-based; details: Table 8
# Candida auris [3] = test: MIC, CLSI M27/M38, half-strength potato dextrose broth (Example 2); format: cell-based; details: Table 8
# Candida albicans = test: as above; format: cell-based; details: Table 8
# Candida glabrata = test: Antifungal MIC in RPMI medium; details: RPMI medium rich in cations
# F. oxysporum [4] = test: Antifungal MIC assay in SFM culture media (Example 1); format: cell-based; details: in vitro, low cationic conditions; F. oxysporum
# P. capsici = test: as above; format: cell-based; details: in vitro, low cationic conditions
# Candida auris [5] = test: Antifungal MIC in RPMI medium; details: RPMI medium rich in cations
# [6] = system: Tricophyton metagrophytes; test: MIC against human nail pathogens (Example 2); format: cell-based; details: Table 13
# Tricophyton rubrum = test: MIC against human nail pathogens (Example 2); format: cell-based; details: Table 13
# [7] = system: Zymoseptoria tritici IPO323; format: cell-based
# Z. tritici = test: Wheat - Zymoseptoria tritici in planta spray assay, curative; format: in vivo; details: wheat plants; 48 μM spray 24 hours after Z. tritici spores; 21 dpi
# Botrytis cinerea T4 = format: cell-based
# [8] = system: Fusarium graminearum PH-1; format: cell-based; details: MIC Day 1; 96-well plate, resazurin cell viability
# B. cinerea [9] = test: Pepper - Botrytis cinerea in planta spray assay, preventative and curative; format: in vivo; details: pepper plants
molecule,measurement,setting,value
CC[C@H](C)[C@H](NC(=O)[C@H](CCCNC(=N)N)NC(=O)[C@@H](NC(=O)[C@H](CS)NC(=O)[C@H](Cc1ccccc1)NC(=O)[C@H](CS)NC(=O)[C@H](CCCNC(=N)N)NC(=O)[C@H](CCCNC(=N)N)NC(=O)[C@H](CCCNC(=N)N)NC(=O)[C@H](Cc1ccccc1)NC(=O)CNC(=O)[C@H](CCCNC(=N)N)NC(=O)[C@H](CS)NC(=O)[C@H](CCCNC(=N)N)NC(=O)CNC(=O)CN)[C@@H](C)O)C(=O)N[C@@H](CS)C(N)=O [GMA4C_V2A] (H-GGRCRGFRRRCFCTRIC-NH2; N-terminus assumed),Antifungal activity relative to the wild-type GMA4C_AC control,B. cinerea [1]; B. cinerea,two-fold reduction
same,MIC (μg/ml) 100%,"Aspergillus fumigatus; Table 8, Aspergillus fumigatus AF293",32 µg/mL
same,Antifungal activity relative to the wild-type GMA4C_AC control,F. graminearum,two-fold reduction
same,MIC (μg/ml) 100%,C. parapsilosis,8 µg/mL
same,MIC (μg/ml) 100%,F. solani,8 µg/mL
same,MIC (μg/ml) 100%,F. oxysporum [2]; Fusarium F1 (F. oxysporum),8 µg/mL
same,MIC (μg/ml) 100%,F. oxysporum [2]; Fusarium F2 (F. oxysporum),16 µg/mL
same,MIC (μg/ml) 100%,Coccidioides sp.; Coccidioides sp. Cocci 1,8 µg/mL
same,MIC (μg/ml) 100%,Coccidioides sp.; Coccidioides sp. Cocci2,16 µg/mL
same,MIC (μg/ml) 100%,Coccidioides sp.; Coccidioides sp. DI17-143,16 µg/mL
same,MIC (μg/ml) 100%,Candida auris [3]; Candida auris DI17-46,16 µg/mL
same,MIC (μg/ml) 100%,Candida auris [3]; Candida auris DI17-47,16 µg/mL
same,MIC (μg/ml) 100%,Candida auris [3]; Candida auris DI17-48,16 µg/mL
same,MIC (μg/ml) 100%,Candida albicans; Candida albicans ATCC 90028,16 µg/mL
same,MIC (μg/ml) 100%,Candida albicans; Candida albicans CA3,16 µg/mL
same,MIC (μg/ml) 100%,Candida albicans; Candida albicans SC5314,16 µg/mL
CC[C@H](C)[C@H](NC(=O)[C@H](CCCNC(=N)N)NC(=O)[C@@H](NC(=O)[C@@H](NC(=O)[C@H](Cc1ccccc1)NC(=O)[C@@H](NC(=O)[C@H](CCCNC(=N)N)NC(=O)[C@H](CCCNC(=N)N)NC(=O)[C@H](CCCNC(=N)N)NC(=O)[C@H](Cc1ccccc1)NC(=O)CNC(=O)[C@H](CCCNC(=N)N)NC(=O)[C@H](CS)NC(=O)[C@H](CCCNC(=N)N)NC(=O)CNC(=O)CN)C(C)C)C(C)C)[C@@H](C)O)C(=O)N[C@@H](CS)C(N)=O [GMA4C_V3A] (H-GGRCRGFRRRVFVTRIC-NH2; N-terminus assumed),B. cinerea MIC,B. cinerea [1],1.5 µM
same,MIC (μM) Botrytis cinerea,B. cinerea [1],3 µM
same,MIC Values (μM) against B. cinerea,B. cinerea [1],3 µM
same,SFM + 2 mM CaCl2 MIC,B. cinerea [1],>6 µM
same,SFM + 100 mM KCl MIC,B. cinerea [1],>6 µM
same,SFM + 100 mM NaCl MIC,B. cinerea [1],1.5 to 3 µM
same,SFM MIC,B. cinerea [1],3 µM
same,Antifungal activity relative to the wild-type GMA4C_AC control,B. cinerea [1]; B. cinerea,equivalent
same,Antifungal activity relative to the wild-type GMA4C_AC control,F. graminearum,equivalent
same,Antifungal activity against C. glabrata,Candida glabrata,show antifungal activity
same,Antifungal activity relative to the wild-type GMA4C_AC control,F. oxysporum [4],equivalent
same,Antifungal activity relative to the wild-type GMA4C_AC control,P. capsici,equivalent
same,Antifungal activity against C. auris,Candida auris [5],show antifungal activity
N=C(N)NCCC[C@H](NC(=O)CNC(=O)[C@@H](N)Cc1ccccc1)C(=O)N[C@@H](CS)C(=O)N[C@@H](CCCNC(=N)N)C(=O)NCC(=O)N[C@@H](Cc1ccccc1)C(=O)N[C@@H](CCCNC(=N)N)C(=O)N[C@@H](CCCNC(=N)N)C(=O)N[C@@H](CCCNC(=N)N)C(=O)N[C@@H](CS)C(=O)N[C@@H](Cc1ccccc1)C(=O)N[C@@H](CS)C(=O)N[C@@H](Cc1c[nH]c2ccccc12)C(=O)N[C@@H](CCCNC(=N)N)C(=O)N[C@@H](Cc1c[nH]c2ccccc12)C(=O)N[C@@H](CS)C(N)=O [GMA4C_V4A] (H-FGRCRGFRRRCFCWRWC-NH2; N-terminus assumed),Potency relative to GMA4C_AC in presence of cations,"B. cinerea [1]; B. cinerea, 100 mM NaCl or 100 mM KCl",2 fold
same,Fungal growth inhibition at 6 μM,"B. cinerea [1]; B. cinerea, in presence of 2 mM CaCl2, peptide 6 μM",inhibit fungal growth
same,Antifungal activity relative to the wild-type GMA4C_AC control,B. cinerea [1]; B. cinerea,equivalent
same,Antifungal activity relative to the wild-type GMA4C_AC control,F. graminearum,equivalent
same,Antifungal activity relative to the wild-type GMA4C_AC control,F. oxysporum [4],equivalent
same,Antifungal activity relative to the wild-type GMA4C_AC control,P. capsici,equivalent
"NCC[C@H](NC(=O)CNC(=O)[C@@H](N)Cc1ccccc1)C(=O)N[C@@H](CS)C(=O)N[C@@H](CCN)C(=O)NCC(=O)N[C@@H](Cc1ccccc1)C(=O)N[C@@H](CCN)C(=O)N[C@@H](CCN)C(=O)N[C@@H](CCN)C(=O)N[C@@H](CS)C(=O)N[C@@H](Cc1ccccc1)C(=O)N[C@@H](CS)C(=O)N[C@@H](Cc1c[nH]c2ccccc12)C(=O)N[C@@H](CCN)C(=O)N[C@@H](Cc1c[nH]c2ccccc12)C(=O)N[C@@H](CS)C(N)=O [GMA4C_V5A, FG(Dab)C(Dab)GF(Dab)(Dab)(Dab)CFCW(Dab)WC-NH2] (H-FG[Dab]C[Dab]GF[Dab][Dab][Dab]CFCW[Dab]WC-NH2; N-terminus assumed)",Antifungal activity relative to the wild-type GMA4C_AC control,B. cinerea [1]; B. cinerea,equivalent
same,Antifungal activity relative to the wild-type GMA4C_AC control,F. graminearum,equivalent
same,Antifungal activity relative to the wild-type GMA4C_AC control,F. oxysporum [4],equivalent
same,Antifungal activity relative to the wild-type GMA4C_AC control,P. capsici,equivalent
"OeDef1_V3: OeDef1 variant of Table 13, printed with SEQ ID NO: 769, the number of GMAOe1C_V3 (GACLKNRHSKHYGWFWYYRHCY; not fully specified (C-terminus); cysteine pairing not given here)",MIC Aspergillus fumigatus (36843),Aspergillus fumigatus; Table 13,>7.9 µM
same,MIC Tricophyton metagrophytes (26103),[6],4.0 µM
same,MIC Tricophyton rubrum (23014),Tricophyton rubrum,4.0 µM
"PD101.1.1: Nicotiana sylvestris wild-type defensin SEQ ID NO: 624 with an N-terminal alanine, expressed in Pichia pastoris (KLCRRRSKTFSSSCFISEHCDKECKEKEGAKRGMCIKKSIFGRFCYCFHKCK; N-terminal alanine; listed as Nicotiana sylvestris)",MIC against Z. tritici on day 1,[7],0.75 µM
same,MIC against Z. tritici on day 7,[7],1.5 µM
same,MIC against Z. tritici on day 14,[7],1.5 µM
same,Z. tritici IPO323 MIC Day 1,[7],0.75 µM
same,Z. tritici IPO323 MIC Day 7,[7],1.5 µM
same,Z. tritici IPO323 MIC Day 14,[7],1.5 µM
same,Curative protection against Septoria tritici blotch (STB),Z. tritici,reduction of STB disease symptoms
same,B. cinerea T4 MIC Day1,Botrytis cinerea T4,1.5 µM
same,F. graminearum PH-1 MIC Day1,[8],1.5 µM
"PD122.1.1: Setaria italica wild-type defensin SEQ ID NO: 715 with an N-terminal alanine, expressed in Pichia pastoris (RRCVSQSHKFVGSCMRKSNCQHVCQTEGFPWGECRFHGGLLRRCFCNKLC; N-terminal alanine; listed as Setaria italica)",Z. tritici IPO323 MIC Day 1,[7],0.75 µM
same,Z. tritici IPO323 MIC Day 7,[7],2.5 µM
same,Z. tritici IPO323 MIC Day 14,[7],3 µM
same,B. cinerea T4 MIC Day1,Botrytis cinerea T4,0.75 µM
same,F. graminearum PH-1 MIC Day1,[8],1.5 µM
same,Curative protection against gray mold disease,"B. cinerea [9]; 24 μM spray 24 hours after B. cinerea spores, 5 dpi",reduction of gray mold disease symptoms
same,Preventative protection against gray mold disease,"B. cinerea [9]; 24 μM spray 24 hours before B. cinerea spores, 96 hpi",reduction of gray mold disease symptoms
